This is an account of results in US8404708B2, “Dual NK1/NK3 receptor antagonists” (Hoffmann-La Roche Inc., priority 2004, dated 2013).

The structures appear in SMILES notation. Like-named read-outs stand apart in the source and are kept apart here.

The target in one assay is human NK1 receptor (Homo sapiens, UniProt P25103). The assay is described as follows: NK1 receptor binding, [3H]substance P displacement, CHO cell membranes.
Assay [1] concerns the target T1, Recombinant human NK3 (hNK3) receptor (Homo sapiens, UniProt P29371).
T1 construct: expressed in transfected cells
T1 sequence (P29371 1-465): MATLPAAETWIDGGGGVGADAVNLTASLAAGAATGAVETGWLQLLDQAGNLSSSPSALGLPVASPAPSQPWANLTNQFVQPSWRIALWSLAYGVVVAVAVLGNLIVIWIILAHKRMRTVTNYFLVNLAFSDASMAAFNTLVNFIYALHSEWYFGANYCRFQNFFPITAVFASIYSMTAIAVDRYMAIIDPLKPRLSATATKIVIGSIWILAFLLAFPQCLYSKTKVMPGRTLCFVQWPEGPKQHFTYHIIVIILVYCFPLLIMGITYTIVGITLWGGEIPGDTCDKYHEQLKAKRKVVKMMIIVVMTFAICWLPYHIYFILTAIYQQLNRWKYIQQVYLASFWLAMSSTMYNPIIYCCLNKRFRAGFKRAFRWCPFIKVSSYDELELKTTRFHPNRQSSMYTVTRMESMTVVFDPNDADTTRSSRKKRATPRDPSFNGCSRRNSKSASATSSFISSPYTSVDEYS
The assay is described as follows: NK3 receptor binding, [3H]SR142801 displacement, membrane preparations. The method in brief:
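hNK3 membranes (~2.5 μg/well) incubated 90 min at room temperature in 50 mM Tris-HCl pH 7.4 with 0.1% BSA, 4 mM MnCl2, 1 μM phosphoramidon. Nonspecific binding defined with 10 μM SB222200; bound [3H]SR142801 separated by filtration on PEI-soaked GF/C filters and counted by scintillation.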

The mark [2] stands for this setting: first value of the cell pKi NK1/NK3, human NK1 receptor, [3H]substance P.
Where [3] appears, read: second value of the cell pKi NK1/NK3, hNK3 receptor, [3H]SR142801.
[4] abbreviates: first value of the cell NK1/NK3, read-out: pKi NK1 (converted).
Where [5] appears, read: second value of the cell NK1/NK3, read-out: pKi NK3 (converted).

human NK1 receptor, sequence (P25103 whole entry): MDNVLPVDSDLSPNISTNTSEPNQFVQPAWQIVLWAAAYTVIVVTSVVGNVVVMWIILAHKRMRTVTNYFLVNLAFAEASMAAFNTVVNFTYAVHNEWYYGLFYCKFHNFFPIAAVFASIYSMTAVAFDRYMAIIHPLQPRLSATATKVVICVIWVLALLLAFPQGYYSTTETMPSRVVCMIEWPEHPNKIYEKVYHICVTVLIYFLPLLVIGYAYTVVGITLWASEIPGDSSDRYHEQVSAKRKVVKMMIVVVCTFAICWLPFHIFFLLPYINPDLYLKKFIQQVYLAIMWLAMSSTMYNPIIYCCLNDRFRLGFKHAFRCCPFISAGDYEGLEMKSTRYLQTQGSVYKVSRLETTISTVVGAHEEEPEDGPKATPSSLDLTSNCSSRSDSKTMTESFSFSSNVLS

With `C[C@H](CO)Nc1cc(-c2ccccc2Cl)c(N(C)C(=O)C(C)(C)c2cc(C(F)(F)F)cc(C(F)(F)F)c2)cn1` [Example 80, (R)-2-(3,5-Bis-trifluoromethyl-phenyl)-N-[4-(2-chloro-phenyl)-6-(2-hydroxy-1-methyl-ethylamino)-pyridin-3-yl]-N-methyl-isobutyramide], the Ki is 1.26 nM on human NK1 receptor (setting [2]) and 8.91 nM in assay [1] (setting [3]).
In the same order, the values of `Cc1ccccc1-c1cc(N2CCC[C@H]2CO)ncc1N(C)C(=O)C(C)(C)c1cc(Cl)cc(Cl)c1` [Example 11, (S)-2-(3,5-Dichloro-phenyl)-N-[6-(2-hydroxymethyl-pyrrolidin-1-yl)-4-o-tolyl-pyridin-3-yl]-N-methyl-isobutyramide] are 1.78 nM and 1.1 nM.
As to `CN(C(=O)C(C)(C)c1cc(C(F)(F)F)cc(C(F)(F)F)c1)c1cnc(N2C[C@@H](O)C[C@H]2CO)cc1-c1cccc(Cl)c1Cl` [Example 253, (2S,4S)-2-(3,5-Bis-trifluoromethyl-phenyl)-N-[4-(2,3-dichloro-phenyl)-6-(4-hydroxy-2-hydroxymethyl-pyrrolidin-1-yl)-pyridin-3-yl]-N-methyl-isobutyramide], the Ki at human NK1 receptor (setting [4]) was 2.88 nM; in assay [1] (setting [5]), 3.16 nM.
Consider `CN(C(=O)C(C)(C)c1cc(C(F)(F)F)cc(C(F)(F)F)c1)c1cnc(N2CCC(NS(C)(=O)=O)CC2)cc1-c1ccccc1Cl` [Example 113, 2-(3,5-Bis-trifluoromethyl-phenyl)-N-[4′-(2-chloro-phenyl)-4-methanesulfonylamino-3,4,5,6-tetrahydro-2H-[1,2′]bipyridinyl-5′-yl]-N-methyl-isobutyramide], for which the figures for the Ki (on human NK1 receptor (setting [2]); in assay [1] (setting [3])) were 5.75 nM and 3.47 nM, respectively.
For `CC(=O)N[C@@H]1CCN(c2cc(-c3ccccc3Cl)c(N(C)C(=O)C(C)(C)c3cc(C(F)(F)F)cc(C(F)(F)F)c3)cn2)C1` [Example 44, (R)-N-[6-(3-Acetylamino-pyrrolidin-1-yl)-4-(2-chloro-phenyl)-pyridin-3-yl]-2-(3,5-bis-trifluoromethyl-phenyl)-N-methyl-isobutyramide], in that order: 0.631 nM and 15.5 nM.
Take `Cc1cc(C)cc(C(C)(C)C(=O)N(C)c2cnc(N3CCC[C@H]3CO)cc2-c2ccccc2Cl)c1` [Example 9, (S)-N-[4-(2-Chloro-phenyl)-6-(2-hydroxymethyl-pyrrolidin-1-yl)-pyridin-3-yl]-2-(3,5-dimethyl-phenyl)-N-methyl-isobutyramide]: the Ki on human NK1 receptor (setting [2]) is 6.46 nM; in assay [1] (setting [3]) it was 3.63 nM.
Consider `Cc1ccc(-c2cc(N3CC[C@H](O)[C@H]3CO)ncc2N(C)C(=O)C(C)(C)c2cc(C(F)(F)F)cc(C(F)(F)F)c2)cc1` [Example 267, (2R,3S)-2-(3,5-Bis-trifluoromethyl-phenyl)-N-[6-(3-hydroxy-2-hydroxymethyl-pyrrolidin-1-yl)-4-p-tolyl-pyridin-3-yl]-N-methyl-isobutyramide], for which the Ki at human NK1 receptor (setting [4]) is 3.63 nM; in assay [1] (setting [5]) it was 28.8 nM.
In the same order, the values of `CN(C(=O)C(C)(C)c1cc(C(F)(F)F)cc(C(F)(F)F)c1)c1cnc(N2C[C@H](O)C[C@H]2CO)cc1-c1cc(F)cc(F)c1` [Example 208, (2S,4R)-2-(3,5-Bis-trifluoromethyl-phenyl)-N-[4-(3,5-difluoro-phenyl)-6-(4-hydroxy-2-hydroxymethyl-pyrrolidin-1-yl)-pyridin-3-yl]-N-methyl-isobutyramide] are 1.35 nM and 6.17 nM.
For `CN(C(=O)C(C)(C)c1cc(C(F)(F)F)cc(C(F)(F)F)c1)c1cnc(N(CCO)CCCO)cc1-c1ccccc1Cl` [Example 150, 2-(3,5-Bis-trifluoromethyl-phenyl)-N-{4-(2-chloro-phenyl)-6-[(2-hydroxy-ethyl)-(3-hydroxy-propyl)-amino]-pyridin-3-yl}-N-methyl-isobutyramide], the figures for the Ki (on human NK1 receptor (setting [2]); in assay [1] (setting [3])) were 1.32 nM and 0.977 nM, respectively.
As to `CN(C(=O)C(C)(C)c1cc(C(F)(F)F)cc(C(F)(F)F)c1)c1cnc(N2C[C@@H](O)C[C@H]2CO)cc1-c1ccc(Cl)cc1Cl` [Example 236, (2S,4S)-2-(3,5-Bis-trifluoromethyl-phenyl)-N-[4-(2,4-dichloro-phenyl)-6-(4-hydroxy-2-hydroxymethyl-pyrrolidin-1-yl)-pyridin-3-yl]-N-methyl-isobutyramide], the Ki (at human NK1 receptor (setting [4]); in assay [1] (setting [5])) was 1.78 nM throughout.
As to `COc1cc(Cl)cc(C(C)(C)C(=O)N(C)c2cnc(N3C[C@H](O)C[C@H]3CO)cc2-c2ccccc2Cl)c1` [Example 8, (2S,4R)-2-(3-Chloro-5-methoxy-phenyl)-N-[4-(2-chloro-phenyl)-6-(4-hydroxy-2-hydroxymethyl-pyrrolidin-1-yl)-pyridin-3-yl]-N-methyl-isobutyramide], the Ki on human NK1 receptor (setting [2]) was 1.7 nM; in assay [1] (setting [3]) it was 1.26 nM.
For the molecule `CCCN(CCO)c1cc(-c2ccccc2C)c(N(C)C(=O)C(C)(C)c2cc(C(F)(F)F)cc(C(F)(F)F)c2)cn1` [Example 119, 2-(3,5-Bis-trifluoromethyl-phenyl)-N-{6-[(2-hydroxy-ethyl)-propyl-amino]-4-o-tolyl-pyridin-3-yl}-N-methyl-isobutyramide], the Ki at human NK1 receptor (setting [2]) was 3.98 nM; in assay [1] (setting [3]) it was 2.29 nM.
In the case of `CN(C(=O)C(C)(C)c1cc(C(F)(F)F)cc(C(F)(F)F)c1)c1cnc(N2C[C@@H](O)C[C@H]2CO)cc1-c1ccc(F)cc1Cl` [Example 235, (2S,4S)-2-(3,5-Bis-trifluoromethyl-phenyl)-N-[4-(2-chloro-4-fluoro-phenyl)-6-(4-hydroxy-2-hydroxymethyl-pyrrolidin-1-yl)-pyridin-3-yl]-N-methyl-isobutyramide], the figures for the Ki (on human NK1 receptor (setting [4]); in assay [1] (setting [5])) were 1.66 nM and 1.26 nM, respectively.
On to `Cc1ccc(-c2cc(N3C[C@H](O)C[C@H]3CO)ncc2N(C)C(=O)C(C)(C)c2cc(C(F)(F)F)cc(C(F)(F)F)c2)cc1` [Example 200, (2S,4R)-2-(3,5-Bis-trifluoromethyl-phenyl)-N-[6-(4-hydroxy-2-hydroxymethyl-pyrrolidin-1-yl)-4-p-tolyl-pyridin-3-yl]-N-methyl-isobutyramide], for which the results for the Ki (at human NK1 receptor (setting [2]); in assay [1] (setting [3])) were 2.34 nM and 18.2 nM, respectively.
In the same order, the values of `CN(C(=O)C(C)(C)c1cc(C(F)(F)F)cc(C(F)(F)F)c1)c1cnc(N2C[C@H](O)C[C@H]2CO)cc1-c1cccc(Br)c1` [Example 205, (2S,4R)-2-(3,5-Bis-trifluoromethyl-phenyl)-N-[4-(3-bromo-phenyl)-6-(4-hydroxy-2-hydroxymethyl-pyrrolidin-1-yl)-pyridin-3-yl]-N-methyl-isobutyramide] are 1.95 nM and 8.51 nM.
For `CN(C(=O)C(C)(C)c1cc(Cl)cc(Cl)c1)c1cnc(N2CCC[C@H]2CO)cc1-c1ccccc1Cl` [Example 2, (S)-N-[4-(2-Chloro-phenyl)-6-(2-hydroxymethyl-pyrrolidin-1-yl)-pyridin-3-yl]-2-(3,5-dichloro-phenyl)-N-methyl-isobutyramide], in that order: 3.39 nM and 0.891 nM.
Consider `CN(C(=O)C(C)(C)c1cc(C(F)(F)F)cc(C(F)(F)F)c1)c1cnc(N2CCC[C@H]2CO)cc1-c1ccc(Cl)c(Cl)c1` [Example 286, (S)-2-(3,5-Bis-trifluoromethyl-phenyl)-N-[4-(3,4-dichloro-phenyl)-6-(2-hydroxymethyl-pyrrolidin-1-yl)-pyridin-3-yl]-N-methyl-isobutyramide], for which the values for the Ki (on human NK1 receptor (setting [4]); in assay [1] (setting [5])) were 1.35 nM and 3.72 nM, respectively.
Consider `CN(C(=O)C(C)(C)c1cc(C(F)(F)F)cc(C(F)(F)F)c1)c1cnc(N2C[C@@H](O)C[C@H]2CO)cc1-c1cccnc1Cl` [Example 254, (2S,4S)-2-(3,5-Bis-trifluoromethyl-phenyl)-N-[2-chloro-6′-(4-hydroxy-2-hydroxymethyl-pyrrolidin-1-yl)-[3,4′]bipyridinyl-3′-yl]-N-methyl-isobutyramide], for which the results for the Ki (at human NK1 receptor (setting [4]); in assay [1] (setting [5])) were 0.977 nM and 3.09 nM, respectively.
Consider `CN(C(=O)C(C)(C)c1cc(C(F)(F)F)cc(C(F)(F)F)c1)c1cnc(N2C[C@H](O)C[C@H]2CO)cc1-c1cccc(Cl)c1Cl` [Example 229, (2S,4R)-2-(3,5-Bis-trifluoromethyl-phenyl)-N-[4-(2,3-dichloro-phenyl)-6-(4-hydroxy-2-hydroxymethyl-pyrrolidin-1-yl)-pyridin-3-yl]-N-methyl-isobutyramide], for which the Ki at human NK1 receptor (setting [4]) was 2.95 nM; in assay [1] (setting [5]), 1.86 nM.
On to `CN(C(=O)C(C)(C)c1cc(C(F)(F)F)cc(C(F)(F)F)c1)c1cnc(N2C[C@H](O)C[C@H]2CO)cc1-c1ccc(Cl)cc1Cl` [Example 136, (2S,4R)-2-(3,5-Bis-trifluoromethyl-phenyl)-N-[4-(2,4-dichloro-phenyl)-6-(4-hydroxy-2-hydroxymethyl-pyrrolidin-1-yl)-pyridin-3-yl]-N-methyl-isobutyramide], for which the Ki was 1.62 nM on human NK1 receptor (setting [2]) and 1.45 nM in assay [1] (setting [3]).
Turning to `Cc1ncccc1-c1cc(N2CCC[C@H]2CO)ncc1N(C)C(=O)C(C)(C)c1cc(C(F)(F)F)cc(C(F)(F)F)c1` [Example 290, (S)-2-(3,5-Bis-trifluoromethyl-phenyl)-N-[6′-(2-hydroxymethyl-pyrrolidin-1-yl)-2-methyl-[3,4′]bipyridinyl-3′-yl]-N-methyl-isobutyramide], the Ki is 1.45 nM at human NK1 receptor (setting [4]) and 1.78 nM in assay [1] (setting [5]).
